Legend:
[1] = target: T1, 37 kDa laminin receptor precursor (37LRP/67LR) (Homo sapiens, UniProt P08865); experiment: ELISA-type inhibition of r37LRP binding to immobilized laminin (and YIGSR)
T1 construct: gene RPSA

[2] = target: T1, 37 kDa laminin receptor precursor (37LRP/67LR); experiment: ELISA-type inhibition of r37LRP binding to immobilized laminin at […]; type: biochemical

SMILES | IC50 [1] | ELISA-type inhibition of r37LRP binding to immobilized laminin at 50 μM [2]
COc1ccc(NCc2c(O)ccc3ccccc23)cc1 [compound 13, 1-((4-methoxyanilino)methyl)-2-naphthol] | 58.9 µM | 
Oc1ccc2ccccc2c1CN(Cc1c(O)ccc2ccccc12)c1ccccc1 [compound 60, 1-((((2-hydroxy-1-naphthyl)methyl)anilino)methyl)-2-naphthol] |  | NSC47923, NSC48478, NSC48861 and NSC48869 were active to the same extent as NSC47924, by in vitro binding assays
Cc1ccc(NCc2c(O)ccc3ccccc23)cc1 [compound 50, 1-(4-toluidinomethyl)-2-naphthol] |  | NSC47923, NSC48478, NSC48861 and NSC48869 were active to the same extent as NSC47924, by in vitro binding assays
Cc1ccc(N(Cc2c(O)ccc3ccccc23)Cc2c(O)ccc3ccccc23)cc1 [compound 61, 1-((((2-hydroxy-1-naphthyl)methyl)-4-methylanilino)methyl)-2-naphthol] |  | NSC47923, NSC48478, NSC48861 and NSC48869 were active to the same extent as NSC47924, by in vitro binding assays
Oc1ccc2ccccc2c1CNc1ccc(Cl)cc1 [compound 52, 1-((4-chloroanilino)methyl)-2-naphthol] |  | NSC47923, NSC48478, NSC48861 and NSC48869 were active to the same extent as NSC47924, by in vitro binding assays
